# Values of other authors in patent US20210069214A1, “TOPICAL COMPOSITIONS COMPRISING A CORTICOSTEROID FOR THE TREATMENT OF PSORIASIS IN PEDIATRIC PATIENTS” (priority 2019, published 2021).
# Test system: HPA axis
# Conditions: topical
structure (smiles),measurement,value
"CCC(=O)O[C@]1(C(=O)CCl)[C@@H](C)C[C@H]2[C@@H]3CCC4=CC(=O)C=C[C@]4(C)[C@@]3(F)[C@@H](O)C[C@@]21C [Clobetasol propionate, [17-(2′-chloroacetyl)-9-fluoro-11-hydroxy-10,13,16-trimethyl-3-oxo-6,7,8,11,12,14,15,16-octahydrocyclopenta[a]phenanthren-17-yl]propanoate]",dose that suppresses the HPA axis (as low as),2 grams per day
